Assay results published in ChEMBL document CHEMBL5053510, “Discovery of AS-1763: A Potent, Selective, Noncovalent, and Orally Available Inhibitor of Bruton's Tyrosine Kinase” (J Med Chem, 2021).

Target: Tyrosine-protein kinase BTK (Homo sapiens, UniProt Q06187)
Assay: Inhibition of human BTK-A using phosphorylated substrate in presence of ATP by microplate reader assay

Sequence of Tyrosine-protein kinase BTK (Q06187 whole entry): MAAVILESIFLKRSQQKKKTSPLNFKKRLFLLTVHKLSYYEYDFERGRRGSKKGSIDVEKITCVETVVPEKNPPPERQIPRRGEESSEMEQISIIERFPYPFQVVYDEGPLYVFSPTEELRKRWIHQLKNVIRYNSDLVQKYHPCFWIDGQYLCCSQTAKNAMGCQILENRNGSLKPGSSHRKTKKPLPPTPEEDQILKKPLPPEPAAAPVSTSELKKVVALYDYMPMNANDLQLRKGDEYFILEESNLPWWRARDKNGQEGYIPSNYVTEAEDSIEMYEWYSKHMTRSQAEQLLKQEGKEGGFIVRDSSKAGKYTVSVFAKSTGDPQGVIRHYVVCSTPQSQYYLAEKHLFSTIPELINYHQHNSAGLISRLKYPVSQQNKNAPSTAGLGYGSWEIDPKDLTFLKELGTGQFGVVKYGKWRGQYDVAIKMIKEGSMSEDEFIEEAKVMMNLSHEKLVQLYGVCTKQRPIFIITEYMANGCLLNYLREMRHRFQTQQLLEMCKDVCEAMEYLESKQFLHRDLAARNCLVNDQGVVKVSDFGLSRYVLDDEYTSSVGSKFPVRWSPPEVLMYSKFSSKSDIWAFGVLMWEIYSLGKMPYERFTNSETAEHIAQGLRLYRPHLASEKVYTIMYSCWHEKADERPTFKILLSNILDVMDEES

IC50	Structure (SMILES)
0.65 nM	CN1CCN(C(=O)N2CC=C(c3cc4c(-c5cccc(-n6ccc7cc(C8CC8)cc(F)c7c6=O)c5CO)nc(N)nc4[nH]3)CC2)CC1
2.6 nM	Nc1nc(-c2cccc(-n3ccc4cc(C5CC5)cc(F)c4c3=O)c2CO)c2cc(C3=CCCCC3)[nH]c2n1
